Laboratory results reported in ChEMBL document CHEMBL1201862, “PubChem BioAssay data set” (2004).
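Method: 48-hour compound exposure of cells in 96-well plates, five concentrations, linear interpolation of endpoints. Here, GI50 denotes the concentration required for 50% inhibition of growth.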 Calls of active or inactive are those of the source. Rule as the data show it: active = GI50 up to about 1.1 µM and inactive = higher.

Columns and labels:
Assay in all cases: NCI tumour cell line growth inhibition, 48 h
786-0 = tested on: 786-0
A498 = tested on: A498
A549 = tested on: A549
ACHN = tested on: ACHN
BT-549 = tested on: BT-549
CAKI-1 = tested on: CAKI-1
CCRF-CEM = tested on: CCRF-CEM
COLO 205 = tested on: COLO 205
DU-145 = tested on: DU-145
EKVX = tested on: EKVX
HCC 2998 = tested on: HCC 2998
HCT-116 = tested on: HCT-116
HCT-15 = tested on: HCT-15
HL-60 = tested on: HL-60
HOP-62 = tested on: HOP-62
HOP-92 = tested on: HOP-92
HT-29 = tested on: HT-29
Hs-578T = tested on: Hs-578T
IGROV-1 = tested on: IGROV-1
K562 = tested on: K562
KM12 = tested on: KM12
LOX IMVI = tested on: LOX IMVI
M14 = tested on: M14
MCF7 = tested on: MCF7
MDA-MB-231 = tested on: MDA-MB-231
MDA-MB-435 = tested on: MDA-MB-435
MDA-N = tested on: MDA-N
MOLT-4 = tested on: MOLT-4
Malme-3M = tested on: Malme-3M
NCI-H226 = tested on: NCI-H226
NCI-H23 = tested on: NCI-H23
NCI-H460 = tested on: NCI-H460
NCI-H522 = tested on: NCI-H522
NCI/ADR-RES = tested on: NCI/ADR-RES
OVCAR-3 = tested on: OVCAR-3
OVCAR-4 = tested on: OVCAR-4
OVCAR-5 = tested on: OVCAR-5
OVCAR-8 = tested on: OVCAR-8
PC-3 = tested on: PC-3
RPMI-8226 = tested on: RPMI-8226
RXF 393 = tested on: RXF 393
SF-268 = tested on: SF-268
SF-295 = tested on: SF-295
SF-539 = tested on: SF-539
SK-MEL-28 = tested on: SK-MEL-28
SK-MEL-2 = tested on: SK-MEL-2
SK-MEL-5 = tested on: SK-MEL-5
SK-OV-3 = tested on: SK-OV-3
SN12C = tested on: SN12C
SNB-19 = tested on: SNB-19
SNB-75 = tested on: SNB-75
SR = tested on: SR
SW-620 = tested on: SW-620
T47D = tested on: T47D
TK-10 = tested on: TK-10
U-251 = tested on: U-251
UACC-257 = tested on: UACC-257
UACC-62 = tested on: UACC-62
UO-31 = tested on: UO-31
DMS-114 = tested on: DMS-114
KM-20L2 = tested on: KM-20L2
LXFL 529 = tested on: LXFL 529
M19-MEL = tested on: M19-MEL
SNB-78 = tested on: SNB-78

CCn1cc(C(=O)O)c(=O)c2cc(F)c(N3CCN(CN4C(=O)/C(=N\c5ncc(Cc6cc(OC)c(OC)c(OC)c6)c(N)n5)c5cc(Cl)ccc54)CC3)cc21
GI50 (786-0): > 100 µM (inactive)
GI50 (A498): > 100 µM (inactive)
GI50 (A549): > 100 µM (inactive)
GI50 (ACHN): > 100 µM (inactive)
GI50 (BT-549): > 100 µM (inactive)
GI50 (CAKI-1): > 100 µM (inactive)
GI50 (CCRF-CEM): 91 µM (inactive)
GI50 (COLO 205): > 100 µM (inactive)
GI50 (DU-145): > 100 µM (inactive)
GI50 (EKVX): > 100 µM (inactive)
GI50 (HCC 2998): 42.2 µM (inactive)
GI50 (HCT-116): 74.3 µM (inactive)
GI50 (HCT-15): 91.6 µM
GI50 (HL-60): 20 µM (inactive)
GI50 (HOP-62): > 100 µM (inactive)
GI50 (HOP-92): > 100 µM (inactive)
GI50 (HT-29): > 100 µM (inactive)
GI50 (Hs-578T): > 100 µM (inactive)
GI50 (IGROV-1): 8.24 µM (inactive)
GI50 (K562): 15.9 µM (inactive)
GI50 (KM12): 50.2 µM (inactive)
GI50 (LOX IMVI): > 100 µM (inactive)
GI50 (M14): > 100 µM (inactive)
GI50 (MCF7): 82 µM (inactive)
GI50 (MDA-MB-231): > 100 µM (inactive)
GI50 (MDA-MB-435): 33.3 µM (inactive)
GI50 (MDA-N): 45.5 µM (inactive)
GI50 (MOLT-4): 0.38 µM (active)
GI50 (Malme-3M): > 100 µM (inactive)
GI50 (NCI-H226): > 100 µM (inactive)
GI50 (NCI-H23): > 100 µM (inactive)
GI50 (NCI-H460): > 100 µM (inactive)
GI50 (NCI-H522): > 100 µM (inactive)
GI50 (NCI/ADR-RES): > 100 µM (inactive)
GI50 (OVCAR-3): > 100 µM (inactive)
GI50 (OVCAR-4): > 100 µM (inactive)
GI50 (OVCAR-5): > 100 µM (inactive)
GI50 (OVCAR-8): > 100 µM (inactive)
GI50 (PC-3): > 100 µM (inactive)
GI50 (RPMI-8226): 0.0399 µM (active)
GI50 (RXF 393): > 100 µM (inactive)
GI50 (SF-268): > 100 µM (inactive)
GI50 (SF-295): > 100 µM (inactive)
GI50 (SF-539): > 100 µM (inactive)
GI50 (SK-MEL-28): > 100 µM (inactive)
GI50 (SK-MEL-2): > 100 µM (inactive)
GI50 (SK-MEL-5): > 100 µM (inactive)
GI50 (SK-OV-3): > 100 µM (inactive)
GI50 (SN12C): > 100 µM (inactive)
GI50 (SNB-19): > 100 µM (inactive)
GI50 (SNB-75): > 100 µM (inactive)
GI50 (SR): 41.4 µM (inactive)
GI50 (SW-620): 5.3 µM (inactive)
GI50 (T47D): > 100 µM (inactive)
GI50 (TK-10): 83 µM (inactive)
GI50 (U-251): 61.4 µM (inactive)
GI50 (UACC-257): > 100 µM (inactive)
GI50 (UACC-62): > 100 µM (inactive)
GI50 (UO-31): > 100 µM (inactive)

[N-]=[N+]=NC1(c2ccccc2)C(=O)c2cccc3c2N(CCC3)C1=O (configuration not stated)
GI50 (786-0): > 100 µM (inactive)
GI50 (A498): 54.6 µM (inactive)
GI50 (ACHN): 54.1 µM (inactive)
GI50 (COLO 205): 88.3 µM (inactive)
GI50 (DMS-114): 44.5 µM (inactive)
GI50 (HL-60): 21.4 µM (inactive)
GI50 (HOP-62): > 100 µM (inactive)
GI50 (HOP-92): 33.6 µM (inactive)
GI50 (HT-29): 47.4 µM (inactive)
GI50 (IGROV-1): 84.9 µM (inactive)
GI50 (K562): 27.7 µM (inactive)
GI50 (KM-20L2): > 100 µM (inactive)
GI50 (KM12): 43.4 µM (inactive)
GI50 (LXFL 529): 56.9 µM (inactive)
GI50 (M14): 36.9 µM (inactive)
GI50 (M19-MEL): 60.7 µM (inactive)
GI50 (MOLT-4): 31.8 µM (inactive)
GI50 (NCI-H23): 49.7 µM (inactive)
GI50 (NCI-H460): 92.3 µM (inactive)
GI50 (NCI-H522): 27 µM (inactive)
GI50 (OVCAR-3): 29.9 µM (inactive)
GI50 (OVCAR-4): 55.8 µM (inactive)
GI50 (OVCAR-5): > 100 µM (inactive)
GI50 (RPMI-8226): 27.7 µM (inactive)
GI50 (RXF 393): > 100 µM (inactive)
GI50 (SF-268): 94.2 µM (inactive)
GI50 (SF-295): 34.5 µM (inactive)
GI50 (SK-MEL-28): > 100 µM (inactive)
GI50 (SK-MEL-2): > 100 µM (inactive)
GI50 (SK-OV-3): 92.9 µM (inactive)
GI50 (SNB-19): 97.5 µM (inactive)
GI50 (SNB-75): 31.8 µM (inactive)
GI50 (SNB-78): 45.1 µM (inactive)
GI50 (SR): 36 µM (inactive)
GI50 (U-251): 72.3 µM (inactive)
GI50 (UACC-257): 32.3 µM (inactive)
GI50 (UACC-62): 92.7 µM (inactive)
GI50 (UO-31): 18.1 µM (inactive)
